Laboratory results from publication PMC6106897, “Biocatalytic synthesis of acylated derivatives of troxerutin: their bioavailability and antioxidant properties in vitro” (Microbial Cell Factories, 2018).

Key:
[1] = Transport experiment in Caco-2 monolayers; format: in vitro ADME, human; settings: human, Caco-2
Description: (§1) The absorptions of troxerutin and its acylated derivatives was measured as described by Chen et al.. Caco-2 cells were cultured in DMEM supplemented with 10% FBS, 100 μg/mL streptomycin, and 100 U/mL penicillin at 37 °C in an atmosphere of 5% CO2 and the medium was changed every 2 days. Caco-2 cells used in this study were seeded onto 12-well translucent Transwell inserts (0.4 μm pore size, Corning Costar, Corning, NY, USA) at a density of 2.5 × 10^5 cells/mL and grown for 3 weeks. Transepithelial electrical resistance (TEER) and lucifer yellow were measured to detect the integrity of Caco-2 monolayers. TEER values were measured by using a voltammeter (Millicell ERS, Millipore, Bedford, MA, USA) and the amount of lucifer yellow transported to the basolateral side in a 2.5-h period was quantified by using a fluorospectrometer (Fluoroskan Ascent FL, Thermo Labsystems, Helsinki, Finland) at an excitation wavelength of 425 nm and emission wavelength of 530 nm. ALP activity was measured to detect the differentiation degree of Caco-2 monolayers by using an ALP Assay Kit.
(§2) Samples (100 μM, 0.5 mL) were placed on the apical (AP) side along with 1.5 mL of HBSS added to the basolateral (BL) side. […] The volume removed from the recipient side was replaced with fresh HBSS at 30, 60, 90, 120, and 150 min. The concentrations on the BL side were measured by HPLC. The apparent permeability coefficients (Papp, cm/s) were calculated according to the equation: Papp=dQ/dt×V/A×C0, where the dQ/dt is the permeability rate (μM/s) calculated from the slope of the amount of tested compounds transported versus time, V is the volume of the basolateral chamber (mL), A is the surface area of the inset (cm^2), and C0 is the initial concentration (μM) of the samples.

[2] = after oral consumption; cited from earlier work
[3] = system: Caco-2 monolayers; test: Transport experiment in Caco-2 monolayers; format: in vitro ADME, human; settings: Caco-2 monolayers
Description: as §1, §2

[4] = 1-octanol/water partition coefficient (logP); format: physicochemical
Description: The 1-octanol/water partition coefficients of troxerutin and its propionyl derivatives were measured as previously described. Each compound was fully mixed with 1-octanol and then vigorously mixed with an equal amount of water. After equilibration for 30 min, the concentrations of compound in each layer were respectively measured by HPLC. The results are shown as common logarithms (logP).

[5] = Hydroxyl radical scavenging ability; settings: sample concentration 20 μM
Description: (§3) Scavenging abilities of hydroxyl and ABTS radicals, and ORAC were measured as described previously with some modifications. A 759S UV/Vis spectrophotometer (Lengguang Technology, Shanghai, China) was used to determine the absorbance of HO· at 532 nm and ABTS^·+ at 734 nm. ORAC analysis was conducted using a Fluoroskan Ascent microplate reader (Thermo Electron Corp., Waltham, MA, USA) at excitation and emission wavelengths of 485 and 530 nm, respectively. Trolox or vitamin C (VC) was used as a positive control, the sample concentration was 20 μM, and all experiments were repeated independently in triplicate.

[6] = ABTS radical scavenging ability; settings: sample concentration 20 μM
Description: as §3

[7] = ORAC assay (fluorescence quenching induced by AAPH); settings: 20 μM
Description: as §3

[8] = system: erythrocytes; test: Erythrocyte hemolysis induced by AAPH; format: cell-based, sheep; settings: 20 μM sample, 200 mM AAPH, 2.5 h, 37 °C
Description: The hemolysis study was performed according to the method of Zhang et al. with some modifications. Erythrocytes from healthy sheep were centrifuged at 770×g for 10 min at 4 °C and washed three times with PBS. Equal amounts of erythrocyte suspension (20%, v/v) and sample solution (20 μM) were mixed and the mixture was incubated for 20 min at 37 °C. After adding 200 mM AAPH, incubation was continued for a further 2.5 h at the same temperature. The final reaction system was diluted with 8 mL PBS and then centrifuged at 1200×g for 10 min at 4 °C. The degree of hemolysis in the supernatant was determined by measuring the absorbance at 540 nm. To obtain the complete hemolysate, ultrapure water was added to the mixture. PBS was used as a negative control and Trolox was used as a positive control. These values were measured using a 756S UV/Vis spectrophotometer (Lengguang Technology). The treated supernatant was collected to measure the level of MDA. All experiments were performed independently in triplicate. The hemolysis rate was calculated using the equation: Hemolysis rate%=OD540of sample/OD540of complete hemolysis×100%.

[9] = system: erythrocyte lysate membrane lipid peroxidation; test: Lipid peroxidation (MDA release) after complete hemolysis; format: cell-based, sheep; settings: erythrocytes completely hemolysed in cold ultrapure water, lysate treated with AAPH

Row | Structure (SMILES) | Papp A→B at 150 min, 100 μM [1] [×10⁻⁶ cm/s] | Papp B→A at 150 min, 100 μM [1] [×10⁻⁶ cm/s] | Bioavailability [2] [%] | Papp at 150 min, 100 μM [1] [×10⁻⁶ cm/s] | UR (uptake ratio = Papp AP–BL/Papp BL–AP) [3] | logP at 30 min [4] | Free radical scavenging ability HO· [5] | Free radical scavenging ability ABTS·+ [6] | Capacity to inhibit fluorescence quenching (ORAC), rank order [7] | Inhibition effects on AAPH-induced erythrocyte hemolysis, rank order [8] | Inhibition of AAPH-induced erythrocyte hemolysis [8] | Inhibition ability for membrane lipid peroxidation (MDA release), rank order [9]
1 | CC(C)NCC(O)COc1cccc2ccccc12 (centres unmarked) [Propranolol] | 48.9 ± 3.3 | 44 ± 2.98 | > 90 | – | – | – | – | – | – | – | – | –
2 | C[C@@H]1O[C@@H](OC[C@H]2O[C@@H](Oc3c(-c4ccc(O)c(O)c4)oc4cc(O)cc(O)c4c3=O)[C@H](O)[C@@H](O)[C@@H]2O)[C@H](O)[C@H](O)[C@H]1O [Rutin, rutin] | 0.06 ± 0.01 | 0.06 ± 0.02 | – | 0.06 | 1.00 ± 0.05 | – | – | – | – | – | – | –
3 | CCC(=O)OCCOc1cc(O)c2c(=O)c(OC3OC(COC4OC(C)C(O)C(O)C4O)C(O)C(O)C3O)c(-c3ccc(OCCOC(=O)CC)c(OCCO)c3)oc2c1 (centres unmarked) [TDE] | 1.54 ± 0.17 | 1.53 ± 0.21 | – | – | – | 1.51 ± 0.05 | 89.7 ± 1.8 c % | 81.5 ± 2.1 c % | troxerutin ≈ TME > TDE | troxerutin < TME ≈ TDE | effectively inhibited | troxerutin ≈ TME > TDE
4 | CCC(=O)OCCOc1ccc(-c2oc3cc(OCCO)cc(O)c3c(=O)c2OC2OC(COC3OC(C)C(O)C(O)C3O)C(O)C(O)C2O)cc1OCCO (centres unmarked) [TME] | 0.99 ± 0.12 | 1.05 ± 0.12 | – | – | – | < 0 | 95.2 ± 3.5 b % | 90.4 ± 3.0 b % | troxerutin ≈ TME > TDE | troxerutin < TME ≈ TDE | effectively inhibited | troxerutin ≈ TME > TDE
5 | C[C@@H]1O[C@@H](OC[C@H]2O[C@@H](Oc3c(-c4ccc(OCCO)c(OCCO)c4)oc4cc(OCCO)cc(O)c4c3=O)[C@H](O)[C@@H](O)[C@@H]2O)[C@H](O)[C@H](O)[C@H]1O [Troxerutin, troxerutin] | 0.34 ± 0.05 | 0.35 ± 0.03 | – | – | – | – | 97.1 ± 2.7 ab % | 96.8 ± 4.1 ab % | troxerutin ≈ TME > TDE | troxerutin < TME ≈ TDE | effectively inhibited | troxerutin ≈ TME > TDE
6 | O=C1O[C@H]([C@@H](O)CO)C(O)=C1O [VC, vitamin C, reference compound] | – | – | – | – | – | – | 99.3 ± 0.05 a % | 100 ± 0.02 a % | – | – | – | –
